Reference: PMC7600403, “Development of an Oil-in-Water Self-Emulsifying Microemulsion for Cutaneous Delivery of Rose Bengal: Investigation of Anti-Melanoma Properties” (Pharmaceutics, 2020)

Key:
WM1366 [1] = assay: MTT cell viability assay of SEMEs and excipients (60 min); type: cell-based, human; details: WM1366, 60 min incubation; mean (95% CI), n = 5; >Max Conc. = not reaching the sensitive range
Method: (§1) Human melanoma cell lines (WM164, WM1366, and D24), spontaneously immortalized normal human keratinocytes (HaCaT), and primary skin fibroblast cells were kindly provided by A/Prof. Helmut Schaider’s laboratory (University of Queensland Diamantina Institute). The cells were grown in RPMI medium (+ L-glutamine) supplemented with 5% (v/v) FBS and 2% penicillin/streptomycin—except for the fibroblast cells which were cultured in DMEM. Cells were routinely grown in culture flasks and maintained at 37 °C in a humidified 5% CO2 atmosphere. The culture media was replaced with fresh media every two to three days. Cells were detached using trypsin–EDTA when they reached approximately 80% confluence to seed or subculture. A low passage number (6–12) of primary fibroblast was used during the experiments, and regular microbial contamination testing was done.
(§2) To exclude any toxic effect of the blank SEMEs and their constituents on human skin cells, an MTT cell viability test was performed based on the original protocol. In this assay, the yellow tetrazolium salt MTT is reduced to insoluble purple formazan crystals by metabolically live cells.
(§3) After 60 min incubation of treated cells, the excipient-containing medium was removed, and 100 μL of MTT in PBS (5 mg/mL) diluted 1:10 in medium was then added. Plates were further incubated in the dark for 2–3 h, after which time the wells were emptied and the purple formazan was dissolved by addition of 200 μL of DMSO to each well. Plates were located in a shaker for 5 min at room temperature and the absorbance of the solutions in the wells was measured at 570 nm using a microplate reader (Multiskan™ FC Microplate Photometer). The impact of each treatment was determined as the percentage of reduced tetrazolium salt against the control cells (untreated cells with medium only).
(§4) The cytotoxicity at each excipient concentration was expressed as a percentage of viability against the untreated control wells (the mean optical density of untreated cells was set at 100% viability) to construct a dose-dependent cytotoxicity plot.
(§5) The percentage viability was calculated as follows (Equation (1)):(1) % Viability= Mean absorbance of treated wells/Mean absorbance of control wellno excipients ×100.
(§6) The cytotoxicity of the excipients and formulations (treatments) was expressed as an IC50 value (concentration causing 50% death of the cell population). The IC50 value for each treatment concentration was calculated from the dose–response curves plotted in GraphPad Prism 7 (GraphPad Software Inc. California, USA) with log (treatment concentration) on the x-axis and percentage survival on the y-axis. The IC50 value was obtained by fitting the dose–response curve with a nonlinear regression curve (Dose-response-inhibition) on GraphPad Prism 7. […] All IC50 values were expressed as v/v (%).

HaCaT [2] = assay: as above; type: cell-based, human; details: 60 min incubation, mean (95% CI), n = 5, >Max Conc. = not reaching the sensitive range
Method: as §1, §2, §3, §4, §5, §6

WM164 [3] = assay: as above; type: cell-based, human; details: WM164, 60 min incubation; mean (95% CI), n = 5; >Max Conc. = not reaching the sensitive range for the applied concentrations
Method: as §1, §2, §3, §4, §5, §6

[4] = design: method as in PubChem; details: ref PubChem; cited from earlier work
Fibroblast = assay: Cell cycle analysis by flow cytometry (PI staining, sub G0G1); type: cell-based, human; details: 50 µM RB, 24-h treatment, untreated 0.00
Method: (§7) Apoptotic cells were detected using Propidium Iodide (PI) staining of treated cells followed by flow cytometry to detect the sub-G1 peak. It has been reported that small segments of DNA caused by DNA fragmentation can be eluted following incubation in a hypotonic phosphate-citrate buffer. When stained with a quantitative DNA binding dye such as PI, cells that have lost DNA will take up less stain and will appear to the left of the G1 peak.
(§8) Briefly, melanoma cells were cultured overnight in a 6-well plate to subconfluence and treated with RB (50 µM) for 24 h. Floating and adherent cells were harvested by a trypsin-based method and fixed by ice cold 70% ethanol. Cells were incubated at 4 °C for at least 24 h in the dark and stained using 70 μM Propidium Iodide in 500 µl of a 38-mM hypotonic tri-sodium citrate buffer supplemented with 5 μg/mL RNase A before flow cytometric analysis using a FACScan. […]
(§9) 6. Cell Cycle Analysis by Flow Cytometry
(§10) After determining that RB decreased cell viability of human skin melanoma cells in a dose-dependent manner, the mechanism of cell death was investigated by flow cytometry. As RB-induced cell death was evident upon exposure to concentrations >50 μM, the cells were treated with 50-μM RB in water, SEME+PG and SEME-PG for 24 h for cell cycle analysis. […]
(§11) increases in apoptotic cell populations when cells were treated with RB-loaded SEMEs compared to […]
(§12) selective cell death mechanism could be a key for an effective antimelanoma drug.
(§13) Figure S7. Cell cycle histograms after RB treatment. RB induces apoptosis in melanoma cells. Flow cytometry histograms of apoptosis assays by the PI method. Cells were treated with 50 μM of RB incorporated in different delivery systems for 24 h. The SubG0G1 region (shown by asterisks) indicates the presence of apoptotic cells induced in melanoma cells treated with RB incorporated in SEMEs.
(§14) The percentages of apoptotic cell populations in cancerous and non-cancerous cells are shown in […]
(§15) Table 4 of the manuscript. […]
(§16) with RB loaded in a SEME containing PG.

D24 [5] = assay: as above; type: cell-based, human; details: D24, 50 µM RB, 24-h treatment; untreated 2.54
Method: as §7, §8, §9, §10, §11, §12, §13, §14, §15, §16

WM1366 [6] = assay: as above; type: cell-based, human; details: WM1366, 50 µM RB, 24-h treatment; untreated 0.89
Method: as §7, §8, §9, §10, §11, §12, §13, §14, §15, §16

HaCaT [7] = assay: as above; type: cell-based, human; details: 50 µM RB, 24-h treatment, untreated 1.07
Method: as §7, §8, §9, §10, §11, §12, §13, §14, §15, §16

WM164 [8] = assay: as above; type: cell-based, human; details: WM164, 50 µM RB, 24-h treatment; untreated 3.94
Method: as §7, §8, §9, §10, §11, §12, §13, §14, §15, §16

D24 [9] = assay: MTT assay, inhibitory effect of RB in different delivery systems; type: cell-based, human
Method: as §1
(§17) For the 72-h MTT assay, cells were seeded into flat bottom 96-well cell culture plates in 100 μL of complete culture medium at the initial density of […]. Cells were incubated under 5% CO2 at 37 °C for 24 h for adhering to the wells and medium was then replaced with 100 μL of fresh medium containing treatment solution at the required final concentration. Each concentration was tested in 3 replicates in 3 independent studies and control cells were exposed to the culture medium only.
(§18) The MTT cell viability assay was also used as a proxy measure for cell proliferation. Cells were plated in 96-well culture plates, at a density of 8000 cells per well in 100 μL of medium and incubated for 24 h. Treatment solutions of active drug in milli-Q® water or incorporating in SEME were prepared in cell culture medium immediately before use and added in a volume of 100 μL at desired final concentrations. After a specific period, cell viability was evaluated by MTT assay. All experiments were performed in triplicate.
as §6

[10] = tested on: primary skin fibroblast cells; assay: as above; type: cell-based, human
Method: as §1, §17, §18, §6

WM1366 [11] = assay: as above; type: cell-based, human
Method: as §1, §17, §18, §6

HaCaT [12] = assay: as above; type: cell-based, human
Method: as §1, §17, §18, §6

WM164 [13] = assay: as above; type: cell-based, human
Method: as §1, §17, §18, §6

D24 [14] = assay: MTT cell viability assay of SEMEs and excipients (60 min); type: cell-based, human; details: D24, 60 min incubation; mean (95% CI), n = 5; >Max Conc. = not reaching the sensitive range
Method: as §1, §2, §3, §4, §5, §6

[15] = tested on: primary skin fibroblast cells; assay: as above; type: cell-based, human; details: 60 min incubation, mean (95% CI), n = 5, >Max Conc. = not reaching the sensitive range
Method: as §1, §2, §3, §4, §5, §6

[16] = tested on: WM164, WM1366, D24, HaCaT and fibroblast cells; assay: MTT cell viability assay of excipients, all tested cell lines together; type: cell-based, human; details: 60 min MTT; maximum concentration used 10 (v/v %)
Method: To exclude any toxic effect of the blank SEMEs and their constituents on human skin cells, an MTT cell viability test was performed based on the original protocol. In this assay, the yellow tetrazolium salt MTT is reduced to insoluble purple formazan crystals by metabolically live cells. After 60 min incubation of treated cells, the excipient-containing medium was removed, and 100 μL of MTT in PBS (5 mg/mL) diluted 1:10 in medium was then added. Plates were further incubated in the dark for 2–3 h, after which time the wells were emptied and the purple formazan was dissolved by addition of 200 μL of DMSO to each well. Plates were located in a shaker for 5 min at room temperature and the absorbance of the solutions in the wells was measured at 570 nm using a microplate reader (Multiskan™ FC Microplate Photometer). The impact of each treatment was determined as the percentage of reduced tetrazolium salt against the control cells (untreated cells with medium only). […] The IC50 value for each treatment concentration was calculated from the dose–response curves plotted in GraphPad Prism 7 (GraphPad Software Inc. California, USA) with log (treatment concentration) on the x-axis and percentage survival on the y-axis. […] All IC50 values were expressed as v/v (%).

Structure (SMILES): CC(O)CO (centres unmarked) [PG, propylene glycol]
- IC50 (WM1366 [1]): >Max Conc.
- IC50 (HaCaT [2]): >Max Conc.
- IC50 (WM164 [3]): >Max Conc.

Structure (SMILES): O=C([O-])c1c(Cl)c(Cl)c(Cl)c(Cl)c1-c1c2cc(I)c(=O)c(I)c-2oc2c(I)c([O-])c(I)cc12.[Na+].[Na+] [RB, 4,5,6,7-tetrachloro-2, 4′, 5′, 7--tetraiodofluorescein disodium salt]
- log P [4]: 7.6
- Apoptotic Cells % (Sub G0G1) (Fibroblast): 0.99%
- Apoptotic Cells % (Sub G0G1) (D24 [5]): 2.66%
- Apoptotic Cells % (Sub G0G1) (WM1366 [6]): 2.29%
- Apoptotic Cells % (Sub G0G1) (HaCaT [7]): 1.15%
- Apoptotic Cells % (Sub G0G1) (WM164 [8]): 6.69%
- IC50 (D24 [9]; RB and encapsulated RB, D24, 48 h incubation, concentration of RB, mean (95% CI), n = minimum of 4): 45.6 µM
- IC50 (D24 [9]; RB aqueous solution, D24, 24 h): 131 µM
- IC50 (D24 [9]; RB aqueous solution, D24, 48 h (Table 2)): 70 µM
- IC50 (D24 [9]; RB aqueous solution, D24, 72 h): 27.3 µM
- IC50 ([10]; RB and encapsulated RB, 48 h incubation, concentration of RB, mean (95% CI), n = minimum of 4): 188 µM
- IC50 ([10]; RB aqueous solution, 24 h): 238 µM
- IC50 ([10]; RB aqueous solution, 48 h (Table 2)): 459 µM
- IC50 ([10]; RB aqueous solution, 72 h): 108 µM
- IC50 (WM1366 [11]; RB and encapsulated RB, WM1366, 48 h incubation, concentration of RB, mean (95% CI), n = minimum of 4, read-out: IC50): 98.9 µM
- IC50 (WM1366 [11]; RB aqueous solution, WM1366, 24 h): >Max Conc.
- IC50 (WM1366 [11]; RB aqueous solution, WM1366, 48 h (Table 2), read-out: IC50): 110 µM
- IC50 (WM1366 [11]; RB aqueous solution, WM1366, 72 h, read-out: IC50): ~114 µM
- IC50 (HaCaT [12]; RB and encapsulated RB, 48 h incubation, concentration of RB, mean (95% CI), n = minimum of 4, read-out: IC50): 153 µM
- IC50 (HaCaT [12]; RB aqueous solution, 24 h, read-out: IC50): 2250 µM
- IC50 (HaCaT [12]; RB aqueous solution, 48 h (Table 2), read-out: IC50): 221 µM
- IC50 (HaCaT [12]; RB aqueous solution, 72 h): >Max Conc.
- IC50 (WM164 [13]; RB and encapsulated RB, WM164, 48 h incubation, concentration of RB, mean (95% CI), n = minimum of 4, vehicle concentration constant): 103 µM
- IC50 (WM164 [13]; RB aqueous solution, WM164, 24 h): 112 µM
- IC50 (WM164 [13]; RB aqueous solution, WM164, 48 h (Table 2)): 107 µM
- IC50 (WM164 [13]; RB aqueous solution, WM164, 72 h): 109 µM

Structure (SMILES): CCOCCOCCO [Transcutol®, diethylene glycol monoethyl ether]
- IC50 (D24 [14]): 4.55 (3.1-8.2) v/v %
- IC50 [15]: >Max Conc.
- IC50 (WM1366 [1]): >Max Conc.
- IC50 (HaCaT [2]): 5.75 (very wide) v/v %
- IC50 (WM164 [3]): ~5.6 (very wide) v/v %
- IC50, range over all the cell lines [16]: ≥ 4.55 v/v (%)
